# Reference: patent publication US9994673B2, “Bisphenol polyether oligomers, methods of manufacture, and polycarbonates made therefrom” (SABIC GLOBAL TECHNOLOGIES B.V, priority 2013, dated 2018)
# Entries after “also recorded” stand apart in the source; their conditions may differ.
# How the values were obtained:
# [1] = biological target: recombinant human estradiol receptor (rhER) beta 1 (Homo sapiens, UniProt Q92731); assay: Competitive estradiol binding assay, displacement of [3H]estradiol, rhER beta 1; details: up to highest concentration 2.5×E-4 M
# [2] = biological target: T1, recombinant human estradiol receptor (rhER) alpha (Homo sapiens, UniProt P03372); assay: Competitive estradiol binding assay, displacement of [3H]estradiol, rhER alpha; details: up to highest concentration 2.5×E-4 M
# T1 sequence (P03372 1-595): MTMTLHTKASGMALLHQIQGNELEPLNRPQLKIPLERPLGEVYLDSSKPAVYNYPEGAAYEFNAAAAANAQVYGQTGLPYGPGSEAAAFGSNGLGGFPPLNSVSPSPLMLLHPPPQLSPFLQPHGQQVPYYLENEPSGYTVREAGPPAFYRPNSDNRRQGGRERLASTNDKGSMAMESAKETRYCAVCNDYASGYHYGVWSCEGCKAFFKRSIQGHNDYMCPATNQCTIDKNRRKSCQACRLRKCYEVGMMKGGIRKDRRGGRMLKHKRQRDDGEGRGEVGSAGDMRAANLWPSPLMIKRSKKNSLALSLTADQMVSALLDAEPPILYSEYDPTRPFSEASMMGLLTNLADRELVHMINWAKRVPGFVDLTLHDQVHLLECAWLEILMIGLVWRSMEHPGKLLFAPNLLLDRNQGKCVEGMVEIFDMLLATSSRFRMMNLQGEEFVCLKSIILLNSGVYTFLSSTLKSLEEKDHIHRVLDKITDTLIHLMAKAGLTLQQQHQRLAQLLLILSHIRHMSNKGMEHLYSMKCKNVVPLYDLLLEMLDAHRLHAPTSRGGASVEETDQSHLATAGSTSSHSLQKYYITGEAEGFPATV
Structure (SMILES),Binding to rhER beta (in words) [1],Binding to rhER alpha (in words) [2],Binding to rhER beta (in words) ([1]; listed as BPA),Binding to rhER alpha (in words) ([2]; listed as BPA)
"CC(C)(c1ccc(O)cc1)c1ccc(OCc2ccc(COc3ccc(C(C)(C)c4ccc(O)cc4)cc3)cc2)cc1 [BPA-X-1, 4,4′-[1,4-Phenylenebis(methyleneoxy-4,1-phenylene(1-methylethylidene))]bisphenol]",no detectable binding,no detectable binding,–,–
"CC(C)(c1ccc(O)cc1)c1ccc(O)cc1 [Control B, Bisphenol A]",–,–,bind to both receptors; also recorded: very low level of binding,bind to both receptors; also recorded: very low level of binding
"CC(C)(c1ccccc1)c1ccc(O)cc1 [Control C, p-Cumyl Phenol]",very low level of binding,very low level of binding,–,–
